“And” between values parts separate entries of the source, which are not always exact repeats. Equal values may be shown once.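 Test compounds were applied to cells in 96-well plates for 48 hours at 5 doses. Abbreviation: GI50, concentration required for 50% inhibition of growth. TGI is the concentration that stops growth completely.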
Tests used:
Experiment in all cases: NCI anticancer screen, dose series, 48 h
HCT-15 colon = tested on: HCT-15 colon
LOX IMVI melanoma = tested on: LOX IMVI melanoma
MALME-3M melanoma = tested on: MALME-3M melanoma
NCI-H522 lung = tested on: NCI-H522 lung
OVCAR-8 ovarian = tested on: OVCAR-8 ovarian
SF-268 CNS = tested on: SF-268 CNS
SK-OV-3 ovarian = tested on: SK-OV-3 ovarian
TK-10 renal = tested on: TK-10 renal
U251 CNS = tested on: U251 CNS
UACC-62 melanoma = tested on: UACC-62 melanoma

Row | Compound | GI50 (HCT-15 colon) | TGI (HCT-15 colon) | GI50 (LOX IMVI melanoma) | TGI (LOX IMVI melanoma) | GI50 (MALME-3M melanoma) | TGI (MALME-3M melanoma) | GI50 (NCI-H522 lung) | TGI (NCI-H522 lung) | GI50 (OVCAR-8 ovarian) | TGI (OVCAR-8 ovarian) | GI50 (SF-268 CNS) | TGI (SF-268 CNS) | GI50 (SK-OV-3 ovarian) | TGI (SK-OV-3 ovarian) | GI50 (TK-10 renal) | TGI (TK-10 renal) | GI50 (U251 CNS) | TGI (U251 CNS) | GI50 (UACC-62 melanoma) | TGI (UACC-62 melanoma)
1 | O=C(O)C(O)C(O)C1[O][Sb][O]C1CO (stereo not given) | > 100 µM | > 100 µM | > 100 µM | > 100 µM | 23.6 µM and 7.62 µM | 68.3 µM and 23.6 µM | > 100 µM and 14 µM | > 100 µM and 38.9 µM | > 100 µM | > 100 µM | > 100 µM | > 100 µM | > 100 µM | > 100 µM | > 100 µM | > 100 µM | > 100 µM | > 100 µM | > 100 µM | > 100 µM
2 | Cc1ccc(S(=O)(=O)ON=C2CC(c3ccccc3)N(C)C(c3ccccc3)C2)cc1 (stereo not given) |  | 34.7 µM and 44.9 µM |  | 27.5 µM and 26.9 µM |  | 78.1 µM and 66.4 µM |  | 27.4 µM and 25.2 µM |  | 35.6 µM and 36.5 µM |  | 51.8 µM and 51.1 µM |  | 44.9 µM and 47.7 µM |  | 49.1 µM and 48.5 µM |  | 55.3 µM and 53.6 µM |  | 31.1 µM
3 | C[C@@H]1CC[C@H]2C(CN3CCN(CC4=C(C(F)(F)F)O[C@@H]5O[C@@]6(C)CC[C@H]7[C@H](C)CC[C@@H]4[C@@]57OO6)CC3)=C(C(F)(F)F)O[C@@H]3O[C@@]4(C)CC[C@@H]1[C@]32OO4 | 1.79 µM | > 37.2 µM | 2.3 µM | > 100 µM | 2.23 µM | > 25.8 µM | 2.78 µM | > 27 µM | 2.29 µM | > 100 µM | 4.24 µM | > 100 µM | > 100 µM | > 100 µM | 4.2 µM | 99.7 µM | 0.653 µM | > 39.9 µM | 6.35 µM | > 100 µM
4 | Cc1ccc(Nc2ccnc(Nc3cccc(C(N)=O)c3)n2)cc1O | 7.16 µM | > 25 µM | 3.02 µM | 7.22 µM | 6.27 µM | > 25 µM | 3.22 µM | > 15.1 µM | 6.51 µM | > 25 µM | 3.84 µM | > 17.7 µM | 1.96 µM | 12.1 µM | 6.39 µM | 17.6 µM | 7.84 µM | > 25 µM | 7.08 µM | > 25 µM
5 | Fc1cc(Nc2ccc3c(OCCCN4CCOCC4)cccc3n2)ccc1Cl | 1.4 µM | 3.06 µM | 1.71 µM | 3.17 µM | 1.91 µM | 4.36 µM | 1.72 µM | 3.35 µM | 4.03 µM | 15.3 µM | 3.13 µM | 17 µM | 2.24 µM | 4.72 µM | 2.01 µM | 4.1 µM | 1.85 µM | 3.75 µM | 2.32 µM | 5.61 µM
6 | N#CC(/C(=N\NC(N)=S)C(=O)NC1C2CC3CC(C2)CC1C3)c1ccc(Cl)cc1 (stereo not given) |  | > 100 µM |  | > 100 µM |  | > 100 µM |  | > 100 µM |  | > 100 µM |  | > 100 µM |  | > 100 µM |  | > 100 µM |  | > 100 µM |  | > 100 µM
7 | Cc1nc(Nc2ccc([N+](=O)[O-])cc2)sc1C(=O)/C=C/c1ccc(N(C)C)cc1 |  | > 100 µM |  | > 100 µM |  | > 100 µM |  | > 100 µM |  | > 100 µM |  | > 100 µM |  | > 100 µM |  | > 100 µM |  | > 100 µM |  | > 100 µM
